Assay results published in US8629301B2, “Process for the purification of benzphetamine hydrochloride” (Mallinckrodt LLC, priority 2004, dated 2014).

Experiment: partition between organic layer (toluene) and aqueous layer at adjusted pH
Conditions: for logD hydrocarbon water: toluene/water

## C[C@@H](Cc1ccccc1)N(C)Cc1ccccc1 [Benzphetamine, d-N-methyl-N-benzyl-beta-phenylisopropylamine]
pH 4
  partition coefficient (ratio of equilibrium concentration in the organic layer to that in the aqueous layer): 0.600
pH 8
  partition coefficient (ratio of equilibrium concentration in the organic layer to that in the aqueous layer): ∞
pH 10
  partition coefficient (ratio of equilibrium concentration in the organic layer to that in the aqueous layer): ∞
pH 6
  logD hydrocarbon water: 1.87

## CN[C@@H](C)Cc1ccccc1 [Methamphetamine, methamphetamine]
pH 4
  partition coefficient (ratio of equilibrium concentration in the organic layer to that in the aqueous layer): 0.015
pH 6
  partition coefficient (ratio of equilibrium concentration in the organic layer to that in the aqueous layer): 0.000
pH 8
  partition coefficient (ratio of equilibrium concentration in the organic layer to that in the aqueous layer): 0.124
pH 10
  logD hydrocarbon water: 0.527
